The results in this text go back to patent US20020049193A1, “N-linked sulfonamides of heterocyclic thioesters” (GPI NIL HOLDINGS, INC., priority 1996, published 2002).

One assay concerns the target FKBP12 (Homo sapiens, UniProt P62942). In words: Ki test procedure: inhibition of peptidyl-prolyl isomerase (rotamase) activity, chymotrypsin-coupled assay. The format is biochemical. The following applies: apparent Ki. An excerpt: The inhibition of the prolyl peptidyl cis-trans isomerase activity of FKBP may be measured as an indicator of this affinity.
The compounds of the invention are shown to inhibit peptidyl-prolyl isomerase (rotamase) activity and can be evaluated by known methods described in the literature (Harding, et al., Nature, 1989, 341:758-760; Holt et al. J. Am. Chem. Soc., 115: 9923-9938). The cis-trans isomerization of an alanine-proline bond in a model substrate, N-succinyl-Ala-Ala-Pro-Phe-p-nitroanilide, is monitored spectrophotometrically in a chymotrypsin-coupled assay, which releases para-nitroanilide from the trans form of the substrate. The inhibition of this reaction caused by the addition of different concentrations of inhibitor is determined, and the data is analyzed as a change in first-order rate constant as a function of inhibitor concentration to yield the apparent Ki values.
In a plastic cuvette are added […] of ice cold assay buffer (25 mM HEPES, pH 7.8, 100 mM NaCl), 10 mL of FKBP (2.5 mM in 10 mM Tris-Cl pH 7.5, 100 mM NaCl, 1 mM dithiothreitol), 25 mL of chymotrypsin (50 mg/ml in 1 mM HCl) and […] of test compound at various concentrations in dimethyl sulfoxide. The reaction is initiated by the addition of 5 mL of substrate (succinyl-Ala-Phe-Pro-Phe-para-nitroanilide, 5 mg/mL in 2.35 mM LiCl in trifluoroethanol).
The absorbance at 390 nm versus time is monitored for 90 seconds using a spectrophotometer and the rate constants are determined from the absorbance versus time data files.
The data for these experiments for representative compounds are presented in Tables II(a) and II(b) under the column “Ki”.

The subject of assay [1] is chick dorsal root ganglia. In words: Chick dorsal root ganglion cultures and neurite outgrowth. It counts as cell-based. The following applies: Gallus gallus, 48 h; read-out: ED50 (the source's name). As for the experimental part: Dorsal root ganglia were dissected from chick embryos of ten day gestation. Whole ganglion explants were cultured on thin layer Matrigel-coated 12 well plates with Liebovitz L15 plus high glucose media supplemented with 2 mM glutamine and 10% fetal calf serum, and also containing 10 μM cytosine β-D arabinofuranoside (Ara C) at 37° C. in an environment containing 5% CO2. Twenty-four hours later, the DRGs were treated with various immunophilin ligands. Forty-eight hours after drug treatment, the ganglia were visualized under phase contrast or Hoffman Modulation contrast with a Zeiss Axiovert inverted microscope. Photomicrographs of the explants were made, and neurite outgrowth was quantitated. Neurites longer than the DRG diameter were counted as positive, with total number of neurites quantitated per each experimental condition. Three to four DRGs are cultured per well, and each treatment was performed in duplicate.
The data for these experiments for representative compounds are presented in Table II(c) under the column “ED50”.

Assay [2] concerns TH-positive dopaminergic neurons in the striatum. Kind of assay: MPTP model of Parkinson's Disease. As to conditions: CD1 mice, MPTP 30 mg/kg i.p. 5 days, test compound 4 mg/kg s.c. 10 days, striatum at 18 days. The format is in vivo. As for the experimental part:
MPTP lesioning of dopaminergic neurons in mice is used as an animal model of Parkinson's Disease. Four week old male CD1 white mice are dosed i.p. with 30 mg/kg of MPTP for 5 days. Test compounds (4 mg/kg), or vehicle, are administered s.c. along with the MPTP for 5 days, as well as for an additional 5 days following cessation of MPTP treatment. At 18 days following MPTP treatment, the animals are sacrificed and the striata dissected and perfusion-fixed.
Immunostaining is performed on saggital and coronal brain sections using anti-tyrosine hydroxylase […] to quantitate survival and recovery of dopaminergic neurons. In animals treated with MPTP and vehicle, a substantial loss of functional dopaminergic terminals is observed as compared to non-lesioned animals. Lesioned animals receiving test compounds show a significant recovery of TH-stained dopaminergic neurons. This model presents quantitation for the recovery of TH-positive dopaminergic neurons in the striatum of animals receiving the compounds of the present invention. Data for representative control and lesioned animals not receiving the test drugs is also presented against the data from the animals receiving the compounds of the present invention in Table III.

Like-named read-outs stand apart in the source and are kept apart here.

Sequence of FKBP12 (P62942 whole entry, species assumed): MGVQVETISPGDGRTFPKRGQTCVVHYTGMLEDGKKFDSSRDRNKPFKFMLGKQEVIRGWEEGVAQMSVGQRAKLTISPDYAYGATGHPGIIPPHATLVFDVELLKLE

With `COc1ccc(CCCSC(=O)[C@@H]2CCCCN2S(=O)(=O)c2ccc(C)cc2)cc1` (racemic) [Compound 26, 3-(4-Methoxyphenyl)propyl 1-[(4-methylphenyl)sulfonyl]-2-piperidinecarbothioate], the Ki on FKBP12 (numerical, read-out: Ki) was 659 nM; on FKBP12 (ranked potency, read-out: Kl), greater than 500 nM. Consider `COc1ccc(CCCSC(=O)C2CCCCN2S(=O)(=O)Cc2ccccc2)cc1` (racemic) [Compound 27, 3-(4-Methoxyphenyl)propyl 1-(benzylsulfonyl)-2-piperidinecarbothioate], for which the Ki at FKBP12 (numerical, read-out: Ki) is 82 nM.

As to `COc1ccc(CCCSC(=O)C2CCCCN2S(=O)(=O)c2ccccc2)cc1` (racemic) [Compound 28, 3-(4-Methoxyphenyl)propyl 1-(phenylsulfonyl)-2-piperidinecarbothioate], the Ki at FKBP12 (numerical, read-out: Ki) was 196 nM; at FKBP12 (ranked potency, read-out: Kl), 51 to 200 nM. For `Cc1ccc(S(=O)(=O)N2CCCCC2C(=O)SCCCc2ccc(C(F)(F)F)cc2)cc1` (racemic) [Compound 29, 3-[4-(Trifluoromethyl)phenyl]propyl 1-[(4-methylphenyl)sulfonyl]-2-piperidinecarbothioate] the same measures were 69 nM and 51 to 200 nM.

With `O=C(SCCc1ccccc1)C1CCCN1S(=O)(=O)c1ccccc1` (stereo not shown) [Compound 1], in assay [1], the EC50 was less than 1 nM. On the same count and under the same terms, the value for `O=C(SCCc1ccccc1)C1CCCN1S(=O)(=O)Cc1ccccc1` (stereo not shown) [Compound 2] was 1 to 50 nM; that for `Cc1ccc(S(=O)(=O)N2CCCC2C(=O)SCCc2ccccc2)cc1` (stereo not shown) [Compound 3] was 1 to 50 nM.

`COc1ccc(CCCSC(=O)[C@@H]2CCCN2S(=O)(=O)c2ccccc2)cc1` [Compound 4, 3-(4-Methoxyphenyl)propyl (2S)-1-(phenylsulfonyl)-2-pyrrolidinecarbothioate]: the Ki is 204 nM on FKBP12 (numerical, read-out: Ki) and 201 to 500 nM at FKBP12 (ranked potency, read-out: Kl). For the same compound, the EC50 in assay [1] was 51 to 200 nM. Besides, the “% Recovery Tyrosine Hydroxylase” value in assay [2] worked out at 42%. As to `COc1ccc(CCCSC(=O)[C@@H]2CCCN2S(=O)(=O)Cc2ccccc2)cc1` [Compound 5, 3-(4-Methoxyphenyl)propyl (2S)-1-(benzylsulfonyl)-2-pyrrolidinecarbothioate], the Ki on FKBP12 (numerical, read-out: Ki) was 22 nM; on FKBP12 (ranked potency, read-out: Kl) it was 1 to 50 nM. Besides, the EC50 in assay [1] lay in the range of 1 to 50 nM. `COc1ccc(CCCSC(=O)[C@@H]2CCCN2S(=O)(=O)c2ccc(C)cc2)cc1` [Compound 6, 3-(4-Methoxyphenyl)propyl (2S)-1-[(4-methylphenyl)sulfonyl]-2-pyrrolidinecarbothioate]: the Ki on FKBP12 (numerical, read-out: Ki) was 145 nM; on FKBP12 (ranked potency, read-out: Kl), 51 to 200 nM. For the same compound, the EC50 in assay [1] was 51 to 200 nM. Further, the “% Recovery Tyrosine Hydroxylase” value in assay [2] came to 37%. `O=C(SCCC(c1ccccc1)c1ccccc1)C1CCCN1S(=O)(=O)c1ccccc1` (stereo not shown) [Compound 7]: in assay [1], the EC50 fell in the range of 1 to 50 nM.

`O=C(SCCC(c1ccccc1)c1ccccc1)C1CCCN1S(=O)(=O)Cc1ccccc1` (stereo not shown) [Compound 8]: in assay [1], the EC50 was less than 1 nM.

On to `O=C(SCCCCc1ccccc1)C1CCCCN1S(=O)(=O)c1ccccc1` (stereo not shown) [Compound 10], for which the EC50 in assay [1] fell in the range of 1 to 50 nM. Same read-out and setting: the value for `O=C(SCCCCc1ccccc1)C1CCCCN1S(=O)(=O)Cc1ccccc1` (stereo not shown) [Compound 11] was 1 to 50 nM. As to `Cc1ccc(S(=O)(=O)N2CCCCC2C(=O)SCCCCc2ccccc2)cc1` (stereo not shown) [Compound 12], the EC50 in assay [1] is 1 to 50 nM. In the case of `COc1cc(S(=O)(=O)N2CCCCC2C(=O)SCCCCc2ccccc2)cc(OC)c1OC` (stereo not shown) [Compound 13], in assay [1], the EC50 is less than 1 nM. On the same count and under the same terms, the value for `O=C(SCCCCc1ccccc1)C1CCCCN1S(=O)(=O)C1CCCCC1` (stereo not shown) [Compound 14] was 1 to 50 nM; that for `O=C(SC(CCCc1ccccc1)CCCc1ccccc1)C1CCCCN1S(=O)(=O)c1ccccc1` (stereo not shown) [Compound 15] was less than 1 nM.

As to `O=C(SC(CCCc1ccccc1)CCCc1ccccc1)C1CCCCN1S(=O)(=O)Cc1ccccc1` (stereo not shown) [Compound 16], the EC50 in assay [1] lay within 51 to 200 nM.

With `CCc1ccc(S(=O)(=O)N2CCC[C@H]2C(=O)SCCc2ccccc2)cc1` [Compound 21, Phenethyl (2S)-1-[(4-ethylphenyl)sulfonyl]-2-pyrrolidinecarbothioate], the Ki at FKBP12 (numerical, read-out: Ki) is 730 nM; on FKBP12 (ranked potency, read-out: Kl) it was greater than 500 nM.

Take `O=C(SCCCc1ccccc1)[C@@H]1CCCN1S(=O)(=O)Cc1ccccc1` [Compound 23, 3-Phenylpropyl (2S)-1-(benzylsulfonyl)-2-pyrrolidinecarbothioate]: on FKBP12 (ranked potency, read-out: Kl), the Ki lay within 51 to 200 nM. In assay [2], the “% Recovery Tyrosine Hydroxylase” value was found to be 80%. As to `O=C(SCCCc1cccc2ccccc12)[C@@H]1CCCN1S(=O)(=O)Cc1ccccc1` [Compound 24, 3-(1-Naphthyl)propyl (2S)-1-(benzylsulfonyl)-2-pyrrolidinecarbothioate], the Ki is 671 nM on FKBP12 (numerical, read-out: Ki) and greater than 500 nM at FKBP12 (ranked potency, read-out: Kl). Also, the “% Recovery Tyrosine Hydroxylase” value in assay [2] is recorded as 40%.
